The results in this text go back to US10709712B2, “Biaryl amide compounds as kinase inhibitors” (NOVARTIS AG, priority 2013, dated 2020).

One test deals with b-Raf(V600E) (Homo sapiens (Human), UniProt P15056, V600E). Conditions: read-out: b-Raf IC-50; Table 2; Alpha Screen phospho-MEK, reaction 3 hours.
Test [1] deals with C-Raf FL (full-length C-Raf protein) (Homo sapiens (Human), UniProt P04049, Y340E/Y341E). The class given is biochemical. The settings on record: Table 2, Alpha Screen phospho-MEK, reaction 1 hour, read-out: c-Raf FL IC-50.

b-Raf(V600E), sequence (P15056 whole entry V600E): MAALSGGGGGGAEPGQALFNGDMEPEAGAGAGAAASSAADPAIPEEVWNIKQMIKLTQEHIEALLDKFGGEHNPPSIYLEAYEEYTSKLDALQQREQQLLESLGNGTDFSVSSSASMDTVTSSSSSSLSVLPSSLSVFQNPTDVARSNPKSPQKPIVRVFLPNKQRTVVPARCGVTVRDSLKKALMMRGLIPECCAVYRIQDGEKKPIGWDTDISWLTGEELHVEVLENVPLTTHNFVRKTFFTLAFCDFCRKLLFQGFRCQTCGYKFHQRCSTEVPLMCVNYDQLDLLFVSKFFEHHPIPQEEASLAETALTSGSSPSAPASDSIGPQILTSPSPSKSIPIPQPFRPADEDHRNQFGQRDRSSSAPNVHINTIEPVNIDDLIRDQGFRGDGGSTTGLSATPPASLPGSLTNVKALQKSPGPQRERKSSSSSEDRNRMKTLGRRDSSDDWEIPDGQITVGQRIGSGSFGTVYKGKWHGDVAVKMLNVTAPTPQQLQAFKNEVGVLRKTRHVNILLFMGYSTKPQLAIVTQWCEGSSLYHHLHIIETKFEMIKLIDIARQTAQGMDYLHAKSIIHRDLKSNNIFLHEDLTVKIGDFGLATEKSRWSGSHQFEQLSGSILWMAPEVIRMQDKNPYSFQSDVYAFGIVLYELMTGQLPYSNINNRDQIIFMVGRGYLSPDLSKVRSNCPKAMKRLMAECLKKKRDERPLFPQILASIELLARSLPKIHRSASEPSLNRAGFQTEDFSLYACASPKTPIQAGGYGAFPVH

In the case of `Cc1ncc(NC(=O)c2cccc(C(F)(F)F)c2)cc1-c1cc(N2CCOCC2)nc(NC[C@@H](C)O)n1` [Example 743, (R)—N-(5-(2-((2-hydroxypropyl)amino)-6-morpholinopyrimidin-4-yl)-6-methylpyridin-3-yl)-3-(trifluoromethyl) benzamide], the IC50 on b-Raf(V600E) worked out at 3.7 nM.

Turning to “N-(4-methyl-3-(5-morpholino-6-((tetrahydro-2H-pyran-4-yl)oxy)pyridazin-3-yl) phenyl)-6-(trifluoromethyl) pyridazine-4-carboxamide [Example 577]”, the IC50 on b-Raf(V600E) is 0.6 nM.

“N-(4-methyl-3-(7-morpholino-2-oxo-2,3-dihydrobenzo[d]oxazol-5-yl) phenyl)-3-(trifluoromethyl) benzamide [Example 827]”: in test [1], the IC50 is 0.2 nM.
